Test results reported in US20120245177A1, “CRYSTALLINE LEVOFOLINIC ACID AND PROCESS FOR ITS PREPARATION” (GMT FINE CHEMICALS SA, priority 2011, published 2012).

What was measured:
[1] = easily converted into by-products if pH lower than 3.0 or temperature reaches 60° C. during pH lowering; per U.S. Pat. No. 6,441,168 B1; cited from earlier work
[2] = Long-term stability test (ICH conditions); format: physicochemical; conditions: long-term: 25±2° C., 60±5% relative humidity; for Assay of Levofolinic acid (% m/m): anhydrous and solvent free basis; for Appearance: specification white to pale yellow powder
Description: Two specimens of the product obtained in example 1 are subjected to accelerated stability tests and long-term stability tests, respectively; the tests are carried out according to ICH conditions. Long-term: 25±2° C., 60±5% relative humidity Analytical methods used for the stability studies tests are described in the calcium levofolinate monograph of the European Pharmacopoeia.

Nc1nc(=O)c2c([nH]1)NC[C@H](CNc1ccc(C(=O)N[C@@H](CCC(=O)O)C(=O)O)cc1)N2C=O [Example 1, (6S)—N(5)-formyl-5,6,7,8-tetrahydrofolic acid]
Stability [1]: unstable
Aspect of a 1.0% m/V solution in Tris solution corrected at pH = 8.1: Absorbance at 420 nm ([2]; 0 months): 0.06
Content of Dextrofolinic acid (H) ([2]; 0 months): <0.10%
Optical rotation of a 1.0% m/V solution in Tris solution corrected at pH = 8.1 ([2]; 0 months): −12.8 °
Related substances: 5-CHO-4H-Pteroic acid (E) (% area) ([2]; 0 months): 0.36 % area
Related substances: Any individual unknown impurities ([2]; 0 months): <0.10 % area
Related substances: Dihydrofolic acid (G) (% area) ([2]; 0 months): <0.10 % area
Related substances: Folic acid (C) (% area) ([2]; 0 months): <0.10 % area
Related substances: N^5-N^10-diformyl-THF (B) (% area) ([2]; 0 months): <0.10 % area
Related substances: N^10-CHO-dihydrofolic acid (F) (% area) ([2]; 0 months): <0.10 % area
Related substances: N^10-CHO-folic acid (D) (% m/m) ([2]; 0 months): <0.10 % m/m
Related substances: PABG (A) (% area) ([2]; 0 months): <0.10 % area
Sum of all relates substances (% area) ([2]; 0 months): 0.57 % area
Water content (%) ([2]; 0 months): 0.8%
Assay of Levofolinic acid (% m/m) ([2]; 0 months): 99.7 % m/m
Appearance ([2]; 0 months): Conform
Aspect of a 1.0% m/V solution in Tris solution corrected at pH = 8.1: Absorbance at 420 nm ([2]; 3 months): 0.05
Related substances: 5-CHO-4H-Pteroic acid (E) (% area) ([2]; 3 months): 0.31 % area
Related substances: Any individual unknown impurities ([2]; 3 months): <0.10 % area
Related substances: Dihydrofolic acid (G) (% area) ([2]; 3 months): <0.10 % area
Related substances: Folic acid (C) (% area) ([2]; 3 months): <0.10 % area
Related substances: N^5-N^10-diformyl-THF (B) (% area) ([2]; 3 months): <0.10 % area
Related substances: N^10-CHO-dihydrofolic acid (F) (% area) ([2]; 3 months): 0.13 % area
Related substances: N^10-CHO-folic acid (D) (% m/m) ([2]; 3 months): <0.10 % m/m
Related substances: PABG (A) (% area) ([2]; 3 months): <0.10 % area
Sum of all relates substances (% area) ([2]; 3 months): 0.49 % area
Water content (%) ([2]; 3 months): 0.8%
Assay of Levofolinic acid (% m/m) ([2]; 3 months): 100.6 % m/m
Appearance ([2]; 3 months): Conform
Aspect of a 1.0% m/V solution in Tris solution corrected at pH = 8.1: Absorbance at 420 nm ([2]; 6 months): 0.06
Content of Dextrofolinic acid (H) ([2]; 6 months): <0.10%
Related substances: 5-CHO-4H-Pteroic acid (E) (% area) ([2]; 6 months): 0.34 % area
Related substances: Any individual unknown impurities ([2]; 6 months): <0.10 % area
Related substances: Dihydrofolic acid (G) (% area) ([2]; 6 months): <0.10 % area
Related substances: Folic acid (C) (% area) ([2]; 6 months): <0.10 % area
Related substances: N^5-N^10-diformyl-THF (B) (% area) ([2]; 6 months): <0.10 % area
Related substances: N^10-CHO-dihydrofolic acid (F) (% area) ([2]; 6 months): 0.15 % area
Related substances: N^10-CHO-folic acid (D) (% m/m) ([2]; 6 months): <0.10 % m/m
Related substances: PABG (A) (% area) ([2]; 6 months): 0.10 % area
Sum of all relates substances (% area) ([2]; 6 months): 0.70 % area
Water content (%) ([2]; 6 months): 0.9%
Assay of Levofolinic acid (% m/m) ([2]; 6 months): 98.8 % m/m
Appearance ([2]; 6 months): Conform
Aspect of a 1.0% m/V solution in Tris solution corrected at pH = 8.1: Absorbance at 420 nm ([2]; 9 months): 0.04
Related substances: 5-CHO-4H-Pteroic acid (E) (% area) ([2]; 9 months): 0.35 % area
Related substances: Any individual unknown impurities ([2]; 9 months): <0.10 % area
Related substances: Dihydrofolic acid (G) (% area) ([2]; 9 months): <0.10 % area
Related substances: Folic acid (C) (% area) ([2]; 9 months): <0.10 % area
Related substances: N^5-N^10-diformyl-THF (B) (% area) ([2]; 9 months): <0.10 % area
Related substances: N^10-CHO-dihydrofolic acid (F) (% area) ([2]; 9 months): 0.15 % area
Related substances: N^10-CHO-folic acid (D) (% m/m) ([2]; 9 months): <0.10 % m/m
Related substances: PABG (A) (% area) ([2]; 9 months): <0.10 % area
Sum of all relates substances (% area) ([2]; 9 months): 0.55 % area
Water content (%) ([2]; 9 months): 1.0%
Assay of Levofolinic acid (% m/m) ([2]; 9 months): 99.4 % m/m
Appearance ([2]; 9 months): Conform
Aspect of a 1.0% m/V solution in Tris solution corrected at pH = 8.1: Absorbance at 420 nm ([2]; 12 months): 0.06
Related substances: 5-CHO-4H-Pteroic acid (E) (% area) ([2]; 12 months): 0.34 % area
Related substances: Any individual unknown impurities ([2]; 12 months): <0.10 % area
Related substances: Dihydrofolic acid (G) (% area) ([2]; 12 months): <0.10 % area
Related substances: Folic acid (C) (% area) ([2]; 12 months): <0.10 % area
Related substances: N^5-N^10-diformyl-THF (B) (% area) ([2]; 12 months): <0.10 % area
Related substances: N^10-CHO-dihydrofolic acid (F) (% area) ([2]; 12 months): 0.18 % area
Related substances: N^10-CHO-folic acid (D) (% m/m) ([2]; 12 months): <0.10 % m/m
Related substances: PABG (A) (% area) ([2]; 12 months): 0.11 % area
Sum of all relates substances (% area) ([2]; 12 months): 0.63 % area
Water content (%) ([2]; 12 months): 1.1%
Assay of Levofolinic acid (% m/m) ([2]; 12 months): 99.4 % m/m
Appearance ([2]; 12 months): Conform
Aspect of a 1.0% m/V solution in Tris solution corrected at pH = 8.1: Absorbance at 420 nm ([2]; 18 months): 0.05
Optical rotation of a 1.0% m/V solution in Tris solution corrected at pH = 8.1 ([2]; 18 months): −13.1°
Related substances: 5-CHO-4H-Pteroic acid (E) (% area) ([2]; 18 months): 0.36 % area
Related substances: Any individual unknown impurities ([2]; 18 months): <0.10 % area
Related substances: Dihydrofolic acid (G) (% area) ([2]; 18 months): <0.10 % area
Related substances: Folic acid (C) (% area) ([2]; 18 months): <0.10 % area
Related substances: N^5-N^10-diformyl-THF (B) (% area) ([2]; 18 months): <0.10 % area
Related substances: N^10-CHO-dihydrofolic acid (F) (% area) ([2]; 18 months): 0.17 % area
Related substances: N^10-CHO-folic acid (D) (% m/m) ([2]; 18 months): <0.10 % m/m
